Our source for the IC50 values is patent US11370784B2 (MISSION THERAPEUTICS LIMITED, priority 2016, dated 2022).

This experiment addresses USP30 (Homo sapiens (Human), UniProt Q70CQ3). The experiment in a line: USP30 biochemical IC50 assay. To be noted: fluorescence polarisation, TAMRA labelled peptide linked to ubiquitin as substrate; enzyme and compound incubated 30 min at room temp; read-out: IC50 range. On the procedure:
Reactions were performed in duplicate in black 384 well plates (small volume, Greiner 784076) in a final reaction volume of 21 μl. Either 1 μl of 50% DMSO or diluted compound was added to the plate. USP30 was diluted in reaction buffer (40 mM Tris, pH 7.5, 0.005% Tween 20, 0.5 mg/ml BSA, 5 mM beta-mercaptoethanol) to the equivalent of 0.05 μl/well and 10 μl of diluted USP30 was added to the compound. Enzyme and compound were incubated for 30 min at room temp. Reactions were initiated by the addition of 50 nM of TAMRA labelled peptide linked to ubiquitin via an iso-peptide bond as fluorescence polarisation substrate. Reactions were read immediately after addition of substrate and following a 2 h incubation at room temperature. Readings were performed on a Pherastar Plus (BMG Labtech). λ Excitation 540 nm; λ Emission 590 nm.

Chain of USP30 (Q70CQ3 57-517): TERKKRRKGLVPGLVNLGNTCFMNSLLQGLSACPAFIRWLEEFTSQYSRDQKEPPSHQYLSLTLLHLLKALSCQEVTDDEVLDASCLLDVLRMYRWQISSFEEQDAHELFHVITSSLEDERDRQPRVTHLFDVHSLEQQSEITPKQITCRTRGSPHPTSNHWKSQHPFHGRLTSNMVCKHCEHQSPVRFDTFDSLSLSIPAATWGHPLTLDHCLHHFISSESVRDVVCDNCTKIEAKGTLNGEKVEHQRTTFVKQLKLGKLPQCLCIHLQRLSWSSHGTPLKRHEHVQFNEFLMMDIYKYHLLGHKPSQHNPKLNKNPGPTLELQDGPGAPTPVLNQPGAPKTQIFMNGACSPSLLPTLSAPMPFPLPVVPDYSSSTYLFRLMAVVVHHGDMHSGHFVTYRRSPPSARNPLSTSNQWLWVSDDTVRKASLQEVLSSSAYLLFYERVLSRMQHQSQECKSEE

On to `N#CN1CCOC(C(=O)Nc2cc(-c3cccc(C(F)(F)F)c3)no2)C1` (racemic) [Example 19, 4-Cyano-N-(3-(3-(trifluoro-methyl)phenyl)isoxazol-5-yl)morpholine-2-carboxamide], for which the IC50 was 100 to 1000 nM. As to `N#CN1CCC[C@](F)(C(=O)Nc2cc(-c3cccc(Cl)c3)no2)C1` [Example 76, (R)—N-(3-(3-Chlorophenyl)isoxazol-5-yl)-1-cyano-3-fluoropiperidine-3-carboxamide], the IC50 is less than 100 nM.

In the case of `N#CN1CCC[C@](F)(C(=O)Nc2ccc(-c3nccc4cn[nH]c34)cn2)C1` [Example 89, (R)—N-(5-(1H-Pyrazolo[3,4-c]pyridin-7-yl)pyridin-2-yl)-1-cyano-3-fluoropiperidine-3-carboxamide], the IC50 was less than 100 nM. For `N#CN1CCOC(C(=O)Nc2cc(-c3ccccc3)[nH]n2)C1` (stereo not shown) [Example 11, 4-Cyano-N-(5-phenyl-1H-pyrazol-3-yl)morpholine-2-carboxamide] the value was 1000 to 10000 nM. Turning to `N#CN1CCC[C@](F)(C(=O)Nc2ccc(-c3cccc4[nH]ncc34)nn2)C1` [Example 91, (R)—N-(6-(1H-Indazol-4-yl)pyridazin-3-yl)-1-cyano-3-fluoropiperidine-3-carboxamide], the IC50 was less than 100 nM.

As to `N#Cc1cccc(-c2cc(NC(=O)C3(F)CCCN(C#N)C3)on2)c1` (stereo not shown) [Example 73, 1-Cyano-N-(3-(3-cyanophenyl)isoxazol-5-yl)-3-fluoropiperidine-3-carboxamide], the IC50 was 100 to 1000 nM. For `N#Cc1ccc(-c2cc(NC(=O)[C@H]3CN(C#N)CCO3)ncn2)cc1` [Example 25, (R)-4-Cyano-N-(6-(4-cyanophenyl)pyrimidin-4-yl)morpholine-2-carboxamide] the value was 1000 to 10000 nM; for `N#CN1CCCC(F)(C(=O)Nc2ncc(-c3ccccc3)s2)C1` (stereo not shown) [Example 42, 1-Cyano-3-fluoro-N-(5-phenylthiazol-2-yl)piperidine-3-carboxamide], 100 to 1000 nM. For `N#Cc1cccc(-c2ccnc(NC(=O)[C@H]3CN(C#N)CCO3)c2)c1` [Example 53, (R)-4-Cyano-N-(4-(3-cyanophenyl)pyridin-2-yl)morpholine-2-carboxamide] the value was less than 100 nM; for `N#CN1CCC[C@](F)(C(=O)Nc2ccc(-c3cccc4cn[nH]c34)cn2)C1` [Example 84, (R)—N-(5-(1H-Indazol-7-yl)pyridin-2-yl)-1-cyano-3-fluoropiperidine-3-carboxamide], less than 100 nM. Under `CCCOc1cc(NC(=O)C2CN(C#N)CCO2)ccc1-c1ccn[nH]1` (stereo not shown) [Example 3, 4-Cyano-N-(3-propoxy-4-(1H-pyrazol-5-yl)phenyl)morpholine-2-carboxamide] stands 100 to 1000 nM; under `N#Cc1cccc(-c2ccnc(NC(=O)[C@@H]3CN(C#N)CCO3)c2)c1` [Example 54, (S)-4-Cyano-N-(4-(3-cyanophenyl)pyridin-2-yl)morpholine-2-carboxamide], 1000 to 10000 nM; under `N#CN1CCOC(C(=O)Nc2cc(-c3ccccc3)on2)C1` (stereo not shown) [Example 13, 4-Cyano-N-(5-phenylisoxazol-3-yl)morpholine-2-carboxamide], 1000 to 10000 nM.

For `N#CN1CCOC(C(=O)Nc2ccc(-c3ccccc3)cn2)C1` (stereo not shown) [Example 12, 4-Cyano-N-(5-phenylpyridin-2-yl)morpholine-2-carboxamide], the IC50 was 1000 to 10000 nM. For `N#CN1CCO[C@@H](C(=O)Nc2cc(-c3ccccc3)ccn2)C1` [Example 1, (R)-4-cyano-N-(4-phenylpyridin-2-yl)morpholine-2-carboxamide], the IC50 fell in the range of 100 to 1000 nM. For `N#CN1CCCC(C(=O)Nc2cc(-c3ccccc3)[nH]n2)C1` (stereo not shown) [Example 38, 1-Cyano-N-(5-phenyl-1H-pyrazol-3-yl)piperidine-3-carboxamide] the value was 1000 to 10000 nM; for `COc1cccc(-c2cc(NC(=O)C3CN(C#N)CCO3)on2)c1` (stereo not shown) [Example 10, 4-Cyano-N-(3-(3-methoxyphe-nyl)isoxazol-5-yl)morpholine-2-carboxamide], 1000 to 10000 nM; for `N#CN1CCCC(F)(C(=O)Nc2ccc(-c3ccn[nH]3)cn2)C1` (racemic) [Example 49, N-(5-(1H-Pyrazol-5-yl)pyridin-2-yl)-1-cyano-3-fluoropiperidine-3-carboxamide], 100 to 1000 nM.

For the molecule `N#Cc1cccc(-c2cc(NC(=O)[C@H]3CN(C#N)CCO3)ncn2)c1` [Example 4, (R)-4-Cyano-N-(6-(3-cyanophenyl)pyrimidin-4-yl)morpholine-2-carboxamide], the IC50 was less than 100 nM. Regarding `N#Cc1cc(F)cc(-c2cc(NC(=O)[C@H]3CN(C#N)CCO3)ncn2)c1` [Example 24, (R)-4-Cyano-N-(6-(3-cyano-5-fluoro-phenyl)pyrimidin-4-yl)morpholine-2-carboxamide], the IC50 is 100 to 1000 nM. `N#CN1CCC[C@](F)(C(=O)Nc2ccc(-n3cccn3)cn2)C1` [Example 77, (R)—N-(5-(1H-Pyrazol-1-yl)pyridin-2-yl)-1-cyano-3-fluoropiperidine-3-carboxamide]: the IC50 lay in the range of 100 to 1000 nM. Take `N#Cc1cccc(-c2ccnc(NC(=O)C3(F)CCCN(C#N)C3)c2)c1` (racemic) [Example 47, 1-Cyano-N-(4-(3-cyanophenyl)pyridin-2-yl)-3-fluoropiperidine-3-carboxamide]: the IC50 lay within 1000 to 10000 nM. Consider `N#CN1CCO[C@@H](C(=O)Nc2cc(-c3cccc(Cl)c3)cnn2)C1` [Example 62, (R)—N-(5-(3-Chlorophenyl)pyridazin-3-yl)-4-cyanomorpholine-2-carboxamide], for which the IC50 lay within 100 to 1000 nM.

In the case of `N#Cc1cccc(-n2cnc(NC(=O)[C@@]3(F)CCCN(C#N)C3)n2)c1` [Example 83, (R)-1-Cyano-N-(1-(3-cyanophenyl)-1H-1,2,4-triazol-3-yl)-3-fluoropiperidine-3-carboxamide], the IC50 was 100 to 1000 nM. In the case of `Cn1cc(-c2ccc(NC(=O)C3CN(C#N)CCO3)cc2)cn1` (stereo not shown) [Example 5, 4-Cyano-N-(4-(1-methyl-1H-pyrazol-4-yl)phenyl)morpholine-2-carboxamide], the half-inhibitory concentration (IC50) lay within 1000 to 10000 nM. For `N#CN1CCC[C@](F)(C(=O)Nc2cn(-c3cccc(OC(F)(F)F)c3)cn2)C1` (stereo in doubt) [Example 81, 1-Cyano-3-fluoro-N-(1-(3-(trifluoromethoxy)phenyl)-1H-imidazol-4-yl)piperidine-3-carboxamide] the value was 100 to 1000 nM; for `N#CN1CCOC(C(=O)Nc2ccc(-c3ccccc3)nc2)C1` (stereo not shown) [Example 17, 4-Cyano-N-(6-phenylpyridin-3-yl)morpholine-2-carboxamide], 1000 to 10000 nM. On to `N#CN1CCO[C@H](C(=O)Nc2cc(-c3ccccc3)ccn2)C1` [Example 35, (S)-4-Cyano-N-(4-phenylpyridin-2-yl)morpholine-2-carboxamide], for which the IC50 is 1000 to 10000 nM. Turning to `N#Cc1cccc(-c2ccnc(NC(=O)[C@@]3(F)CCCN(C#N)C3)c2)c1` [Example 52, (R)-1-Cyano-N-(4-(3-cyanophenyl)pyridin-2-yl)-3-fluoropiperidine-3-carboxamide], the IC50 lay within 100 to 1000 nM. Turning to `N#CN1CCO[C@@H](C(=O)Nc2ccc(-c3ccn[nH]3)cn2)C1` [Example 29, (R)-N-(5-(1H-Pyrazol-5-yl)pyridin-2-yl)-4-cyanomorpholine-2-carboxamide], the IC50 is 1000 to 10000 nM. With `N#Cc1cccc(-n2cc(NC(=O)[C@@]3(F)CCCN(C#N)C3)nn2)c1` [Example 82, (R)-1-Cyano-N-(1-(3-cyanophenyl)-1H-1,2,3-triazol-4-yl)-3-fluoropiperidine-3-carboxamide], the IC50 lay within 100 to 1000 nM.
